Assay results from ChEMBL document CHEMBL5584214, “Design of MERS-CoV entry inhibitory short peptides based on helix-stabilizing strategies” (Bioorg Med Chem Lett, 2024).
Non-standard residues stand in square brackets, D forms with d. Residues, ends and D or L forms follow the SMILES beside them. *: point of attachment. PEG24 = NCCOCCOCCOCCOCCOCCOCCOCCOCCOCCOCCOCCOCCOCCOCCOCCOCCOCCOCCOCCOCCOCCOCCOCCOCCC(=O)O; PEG12 = NCCOCCOCCOCCOCCOCCOCCOCCOCCOCCOCCOCCOCCC(=O)O; Palmitoyl = CCCCCCCCCCCCCCCC(=O)*; Octanoyl = CCCCCCCC(=O)*; AEEA = NCCOCCOCC(=O)O; Aib = CC(C)(N)C(=O)O

Test: Inhibition of MERS-CoV Spike glycoprotein mediated cell-cell fusion
Parameters: species or system Middle East respiratory syndrome-related coronavirus

Compound | EC50 [µM]
CSCC[C@H](NC(=O)C(C)(C)NC(=O)[C@H](Cc1ccc(O)cc1)NC(=O)[C@@H](NC(=O)[C@H](CC(C)C)NC(=O)C(C)(C)NC(=O)[C@H](CC(C)C)NC(C)=O)[C@@H](C)O)C(=O)N[C@@H](CC(C)C)C(=O)N[C@@H](CO)C(=O)N[C@@H](CC(C)C)C(=O)N[C@@H](CCC(N)=O)C(=O)N[C@@H](CCC(N)=O)C(=O)N[C@H](C(=O)N[C@H](C(=O)N[C@@H](CCCCN)C(=O)N[C@@H](C)C(=O)N[C@@H](CC(C)C)C(=O)N[C@@H](CC(N)=O)C(=O)N[C@@H](CCC(=O)O)C(=O)N[C@@H](CO)C(=O)N[C@@H](Cc1ccc(O)cc1)C(N)=O)C(C)C)C(C)C | 2.33
CCCCCCCC(=O)NCCCC[C@H](NC(=O)COCCOCCNC(=O)[C@H](Cc1ccc(O)cc1)NC(=O)[C@H](CO)NC(=O)[C@H](CCC(=O)O)NC(=O)[C@H](CC(N)=O)NC(=O)[C@H](CC(C)C)NC(=O)[C@H](CCCCN)NC(=O)[C@H](CCCCN)NC(=O)[C@@H](NC(=O)[C@@H](NC(=O)[C@H](CCC(=O)O)NC(=O)[C@H](CCC(N)=O)NC(=O)[C@H](CC(C)C)NC(=O)[C@H](CO)NC(=O)[C@H](CC(C)C)NC(=O)[C@H](CCSC)NC(=O)C(C)(C)NC(=O)[C@H](Cc1ccc(O)cc1)NC(=O)[C@@H](NC(=O)[C@H](CC(C)C)NC(=O)C(C)(C)NC(=O)[C@H](CC(C)C)NC(C)=O)[C@@H](C)O)C(C)C)C(C)C)C(N)=O (Ac-L[Aib]LTY[Aib]MLSLQEVVKKLNESY[AEEA]K(Octanoyl)-NH2) | 0.864
CCCCCCCCCCCCCCCC(=O)NCCCC[C@H](NC(=O)CCOCCOCCOCCOCCOCCOCCOCCOCCOCCOCCOCCOCCNC(=O)[C@H](Cc1ccc(O)cc1)NC(=O)[C@H](CO)NC(=O)[C@H](CCC(=O)O)NC(=O)[C@H](CC(N)=O)NC(=O)[C@H](CC(C)C)NC(=O)[C@H](CCCCN)NC(=O)[C@H](CCCCN)NC(=O)[C@@H](NC(=O)[C@@H](NC(=O)[C@H](CCC(=O)O)NC(=O)[C@H](CCC(N)=O)NC(=O)[C@H](CC(C)C)NC(=O)[C@H](CO)NC(=O)[C@H](CC(C)C)NC(=O)[C@H](CCSC)NC(=O)C(C)(C)NC(=O)[C@H](Cc1ccc(O)cc1)NC(=O)[C@@H](NC(=O)[C@H](CC(C)C)NC(=O)C(C)(C)NC(=O)[C@H](CC(C)C)NC(C)=O)[C@@H](C)O)C(C)C)C(C)C)C(N)=O (Ac-L[Aib]LTY[Aib]MLSLQEVVKKLNESY[PEG12]K(Palmitoyl)-NH2) | 1.42
CSCC[C@H](NC(=O)[C@H](CCC(=O)O)NC(=O)[C@H](Cc1ccc(O)cc1)NC(=O)[C@@H](NC(=O)[C@H](CC(C)C)NC(=O)[C@H](CC(=O)O)NC(=O)[C@H](CC(C)C)NC(C)=O)[C@@H](C)O)C(=O)N[C@@H](CC(C)C)C(=O)N[C@@H](CO)C(=O)N[C@@H](CC(C)C)C(=O)N[C@@H](CCC(N)=O)C(=O)NC(C)(C)C(=O)N[C@H](C(=O)N[C@H](C(=O)N[C@@H](CCCCN)C(=O)NC(C)(C)C(=O)N[C@@H](CC(C)C)C(=O)N[C@@H](CC(N)=O)C(=O)N[C@@H](CCC(=O)O)C(=O)N[C@@H](CO)C(=O)N[C@@H](Cc1ccc(O)cc1)C(N)=O)C(C)C)C(C)C (Ac-LDLTYEMLSLQ[Aib]VVK[Aib]LNESY-NH2) | 6.66
Ac-LDLTYEMASLQAVVKALNESY-NH2 | > 50
CSCC[C@H](NC(=O)C(C)(C)NC(=O)[C@H](Cc1ccc(O)cc1)NC(=O)[C@H](CCC(=O)O)NC(=O)[C@H](CC(C)C)NC(=O)C(C)(C)NC(=O)[C@H](CC(C)C)NC(C)=O)C(=O)N[C@@H](CCCCN)C(=O)N[C@@H](CO)C(=O)N[C@@H](CC(C)C)C(=O)N[C@@H](CCC(N)=O)C(=O)N[C@@H](CCC(=O)O)C(=O)N[C@H](C(=O)N[C@H](C(=O)N[C@@H](CCCCN)C(=O)N[C@@H](CCCCN)C(=O)N[C@@H](CC(C)C)C(=O)N[C@@H](CC(N)=O)C(=O)N[C@@H](CCC(=O)O)C(=O)N[C@@H](CO)C(=O)N[C@@H](Cc1ccc(O)cc1)C(N)=O)C(C)C)C(C)C (Ac-L[Aib]LEY[Aib]MKSLQEVVKKLNESY-NH2) | 24
CSCC[C@H](NC(=O)[C@H](CCC(=O)O)NC(=O)[C@H](Cc1ccc(O)cc1)NC(=O)C(C)(C)NC(=O)[C@H](CC(C)C)NC(=O)[C@H](CC(=O)O)NC(=O)[C@H](CC(C)C)NC(C)=O)C(=O)NC(C)(C)C(=O)N[C@@H](CO)C(=O)N[C@@H](CC(C)C)C(=O)N[C@@H](CCC(N)=O)C(=O)N[C@@H](CCC(N)=O)C(=O)N[C@H](C(=O)N[C@H](C(=O)N[C@@H](CCCCN)C(=O)N[C@@H](C)C(=O)N[C@@H](CC(C)C)C(=O)N[C@@H](CC(N)=O)C(=O)N[C@@H](CCC(=O)O)C(=O)N[C@@H](CO)C(=O)N[C@@H](Cc1ccc(O)cc1)C(N)=O)C(C)C)C(C)C | 24.4
CSCC[C@H](NC(=O)[C@H](CCC(=O)O)NC(=O)C(C)(C)NC(=O)[C@@H](NC(=O)[C@H](CC(C)C)NC(=O)[C@H](CC(=O)O)NC(=O)[C@H](CC(C)C)NC(C)=O)[C@@H](C)O)C(=O)N[C@@H](CC(C)C)C(=O)NC(C)(C)C(=O)N[C@@H](CC(C)C)C(=O)N[C@@H](CCC(N)=O)C(=O)N[C@@H](CCC(N)=O)C(=O)N[C@H](C(=O)N[C@H](C(=O)N[C@@H](CCCCN)C(=O)N[C@@H](C)C(=O)N[C@@H](CC(C)C)C(=O)N[C@@H](CC(N)=O)C(=O)N[C@@H](CCC(=O)O)C(=O)N[C@@H](CO)C(=O)N[C@@H](Cc1ccc(O)cc1)C(N)=O)C(C)C)C(C)C | > 50
CSCC[C@H](NC(=O)[C@H](CCC(=O)O)NC(=O)[C@H](Cc1ccc(O)cc1)NC(=O)[C@@H](NC(=O)[C@H](CC(C)C)NC(=O)[C@H](CC(=O)O)NC(=O)[C@H](CC(C)C)NC(C)=O)[C@@H](C)O)C(=O)N[C@@H](CC(C)C)C(=O)NC(C)(C)C(=O)N[C@@H](CC(C)C)C(=O)N[C@@H](CCC(N)=O)C(=O)N[C@@H](CCC(N)=O)C(=O)NC(C)(C)C(=O)N[C@H](C(=O)N[C@@H](CCCCN)C(=O)N[C@@H](C)C(=O)N[C@@H](CC(C)C)C(=O)N[C@@H](CC(N)=O)C(=O)N[C@@H](CCC(=O)O)C(=O)N[C@@H](CO)C(=O)N[C@@H](Cc1ccc(O)cc1)C(N)=O)C(C)C (Ac-LDLTYEML[Aib]LQQ[Aib]VKALNESY-NH2) | > 50
CSCC[C@H](NC(=O)[C@H](CCC(=O)O)NC(=O)[C@H](Cc1ccc(O)cc1)NC(=O)[C@@H](NC(=O)[C@H](CC(C)C)NC(=O)[C@H](CC(=O)O)NC(=O)[C@H](CC(C)C)NC(C)=O)[C@@H](C)O)C(=O)N[C@@H](CC(C)C)C(=O)N[C@@H](CO)C(=O)N[C@@H](CC(C)C)C(=O)N[C@@H](CCC(N)=O)C(=O)N[C@@H](CCC(N)=O)C(=O)N[C@H](C(=O)N[C@H](C(=O)N[C@@H](CCCCN)C(=O)N[C@@H](C)C(=O)N[C@@H](CC(C)C)C(=O)N[C@@H](CC(N)=O)C(=O)N[C@@H](CCC(=O)O)C(=O)N[C@@H](CO)C(=O)N[C@@H](Cc1ccc(O)cc1)C(N)=O)C(C)C)C(C)C | > 50
CSCC[C@H](NC(=O)[C@H](CCC(=O)O)NC(=O)[C@H](Cc1ccc(O)cc1)NC(=O)[C@@H](NC(=O)[C@H](CC(C)C)NC(=O)[C@H](CC(=O)O)NC(=O)[C@H](CC(C)C)NC(C)=O)[C@@H](C)O)C(=O)N[C@@H](CC(C)C)C(=O)N[C@@H](CO)C(=O)N[C@@H](CC(C)C)C(=O)NC(C)(C)C(=O)N[C@@H](CCC(N)=O)C(=O)N[C@H](C(=O)N[C@H](C(=O)NC(C)(C)C(=O)N[C@@H](C)C(=O)N[C@@H](CC(C)C)C(=O)N[C@@H](CC(N)=O)C(=O)N[C@@H](CCC(=O)O)C(=O)N[C@@H](CO)C(=O)N[C@@H](Cc1ccc(O)cc1)C(N)=O)C(C)C)C(C)C (Ac-LDLTYEMLSL[Aib]QVV[Aib]ALNESY-NH2) | 2.55
CSCC[C@H](NC(=O)[C@H](CCC(=O)O)NC(=O)[C@H](Cc1ccc(O)cc1)NC(=O)[C@@H](NC(=O)[C@H](CC(C)C)NC(=O)[C@H](CC(=O)O)NC(=O)[C@H](CC(C)C)NC(C)=O)[C@@H](C)O)C(=O)N[C@@H](CC(C)C)C(=O)N[C@@H](CO)C(=O)N[C@@H](CC(C)C)C(=O)N[C@@H](CCC(N)=O)C(=O)N[C@@H](CCC(N)=O)C(=O)N[C@H](C(=O)N[C@H](C(=O)NC(C)(C)C(=O)N[C@@H](C)C(=O)N[C@@H](CC(C)C)C(=O)N[C@@H](CC(N)=O)C(=O)NC(C)(C)C(=O)N[C@@H](CO)C(=O)N[C@@H](Cc1ccc(O)cc1)C(N)=O)C(C)C)C(C)C | 3.04
CCCCCCCCCCCCCCCC(=O)NCCCC[C@H](NC(=O)CCOCCOCCOCCOCCOCCOCCOCCOCCOCCOCCOCCOCCOCCOCCOCCOCCOCCOCCOCCOCCOCCOCCOCCOCCNC(=O)[C@H](Cc1ccc(O)cc1)NC(=O)[C@H](CO)NC(=O)[C@H](CCC(=O)O)NC(=O)[C@H](CC(N)=O)NC(=O)[C@H](CC(C)C)NC(=O)[C@H](CCCCN)NC(=O)[C@H](CCCCN)NC(=O)[C@@H](NC(=O)[C@@H](NC(=O)[C@H](CCC(=O)O)NC(=O)[C@H](CCC(N)=O)NC(=O)[C@H](CC(C)C)NC(=O)[C@H](CO)NC(=O)[C@H](CC(C)C)NC(=O)[C@H](CCSC)NC(=O)C(C)(C)NC(=O)[C@H](Cc1ccc(O)cc1)NC(=O)[C@@H](NC(=O)[C@H](CC(C)C)NC(=O)C(C)(C)NC(=O)[C@H](CC(C)C)NC(C)=O)[C@@H](C)O)C(C)C)C(C)C)C(N)=O (Ac-L[Aib]LTY[Aib]MLSLQEVVKKLNESY[PEG24]K(Palmitoyl)-NH2) | > 50
CSCC[C@H](NC(=O)C(C)(C)NC(=O)[C@H](Cc1ccc(O)cc1)NC(=O)[C@@H](NC(=O)[C@H](CC(C)C)NC(=O)C(C)(C)NC(=O)[C@H](CC(C)C)NC(C)=O)[C@@H](C)O)C(=O)N[C@@H](CC(C)C)C(=O)N[C@@H](CO)C(=O)N[C@@H](CC(C)C)C(=O)N[C@@H](CCC(N)=O)C(=O)N[C@@H](CCC(=O)O)C(=O)N[C@H](C(=O)N[C@H](C(=O)N[C@@H](CCCCN)C(=O)N[C@@H](CCCCN)C(=O)N[C@@H](CC(C)C)C(=O)N[C@@H](CC(N)=O)C(=O)N[C@@H](CCC(=O)O)C(=O)N[C@@H](CO)C(=O)N[C@@H](Cc1ccc(O)cc1)C(N)=O)C(C)C)C(C)C (Ac-L[Aib]LTY[Aib]MLSLQEVVKKLNESY-NH2) | 3.62
CSCC[C@H](NC(=O)[C@H](CCC(=O)O)NC(=O)[C@H](Cc1ccc(O)cc1)NC(=O)[C@@H](NC(=O)[C@H](CC(C)C)NC(=O)[C@H](CC(=O)O)NC(=O)[C@H](CC(C)C)NC(C)=O)[C@@H](C)O)C(=O)N[C@@H](CC(C)C)C(=O)N[C@@H](CO)C(=O)N[C@@H](CC(C)C)C(=O)N[C@@H](CCC(N)=O)C(=O)N[C@@H](CCC(N)=O)C(=O)N[C@H](C(=O)N[C@H](C(=O)N[C@@H](CCCCN)C(=O)N[C@@H](C)C(=O)N[C@@H](CC(C)C)C(=O)N[C@@H](CC(N)=O)C(=O)N[C@@H](CCC(=O)O)C(=O)N[C@@H](C)C(=O)N[C@@H](Cc1ccc(O)cc1)C(N)=O)C(C)C)C(C)C | 6.67
